These results are taken from paper PMC5384453, “A multi-functional PEGylated gold(III) compound: potent anti-cancer properties and self-assembly into nanostructures for drug co-delivery” (Chemical Science, 2016).

Molecules are shown by their SMILES. Like-named read-outs stand apart in the source and are kept apart here.

One assay relates to A2780cis. The assay is described as follows: In vitro cytotoxicity, MTT assay. In kind it is cell-based, human. The settings on record: for IC50: A2780cis, MTT assay, 72 h incubation; for Resistance found in A2780cis: IC50 of A2780cis cells / IC50 of A2780 cells. A general note: Formazan colour is commonly taken as a measure of viable cells.
The next assay deals with CHEM-5. The assay is described as follows: In vitro cytotoxicity, MTT assay. The settings on record: CHEM-5, MTT assay, 72 h. In kind it is cell-based, human. The protocol: (§1) page 7: The gold content of the nanocomposites was determined by dissolving the nanocomposites in conc. HNO3 / conc. HCl solution mixture (9:1, v/v; 30 µL), followed by ICP-MS analysis. […] The nanocomposite (10 µL) was dissolved in acetonitrile (90 µL), and subjected to gentle shaking overnight. The solution mixture was then dried under vacuum, and re- dispersed in 0.1 vol% formic acid in water/acetonitrile (7/3, v/v; 1 mL) solution mixture. […] The mobile phase was 0.1 vol% formic acid in water/acetonitrile (7:3, v/v) solution mixture. […] The cells were then treated with a serial concentration of gold(III) complexes and incubated at 37 °C under a 5% CO2 atmosphere for 72 h. […] After incubation for 72 h, MTT in PBS solution (5 mg/mL, 10 μL) was added to each well. The plates were incubated at 37 °C under a 5% CO2 atmosphere for another 4 h, and the cells were lysed by the addition of SDS solution (10%, w/w) with 0.01 M HCl (100 μL). After incubation in dark at 37 °C overnight, the cell viability after treatment was determined by a microtitre plate reader monitoring at the absorbance at 590 nm, P.7 page 8: which reflected the amount of blue formazan formed. IC50 values were then determined by CompuSyn S6 from three independent measurements. Study on the release of hydrolyzed product from 1 and 2 in aqueous buffer solutions by ICP-MS. […] At a predetermined time, an aliquot of solution was removed and dissolved in HNO3/HCl solution mixture (9:1, v/v; volume of aliquot: volume of acid mixture = 1:3). The solution mixture was heated at 65 °C with shaking overnight, and the gold content was determined by ICP-MS from three independent aliquots. […] 37 °C for 24 h. […] Analysis of cell lysate of HCT116 cells treated with complexes 1 and 3 by UPLC- QTOF-MS. […] All the cells were harvested, washed with PBS solution for three times and dispersed in ice-cold water. The cell suspension was then added to ice-cold acetonitrile (1:3, v/v), vortexed for 5 min, and centrifuged at 10,000 rpm at 4 °C. The supernatant was collected, dried under vacuum and the solid was re-dissolved in acetonitrile (HPLC grade) for UPLC- QTOF-MS experiments. The mobile phase was a mixture of 0.1% formic acid in water (phase A) and 0.1% formic acid in acetonitrile (phase B). […] P.46

The test system of a further assay is L02. The assay is described as follows: In vitro cytotoxicity, MTT assay. In kind it is cell-based, human. The settings on record: 72 h. The method, then:
as §1

Another assay concerns A2780. The assay is described as follows: In vitro cytotoxicity, MTT assay. In kind it is cell-based, human. Particulars: A2780, MTT assay, 72 h incubation.
The subject of another assay is A2780adr. Briefly: In vitro cytotoxicity, MTT assay. Particulars: for IC50: A2780adr; for Resistance found in A2780adr: IC50 of A2780adr cells / IC50 of A2780 cells. In kind it is cell-based, human.
The subject of another assay is HeLa. Briefly: In vitro cytotoxicity, MTT assay. In kind it is cell-based, human. The settings on record: HeLa.
In another assay the test system is MIHA. The assay is described as follows: In vitro cytotoxicity, MTT assay. In kind it is cell-based.
For another assay, the system named is HCT116. Briefly: In vitro cytotoxicity, MTT assay. The settings on record: HCT116, MTT assay, 72 h incubation. In kind it is cell-based, human.
Another assay relates to NCI-H460. Briefly: In vitro cytotoxicity, MTT assay. In kind it is cell-based, human. The settings on record: NCI-H460, MTT assay, 72 h incubation.
Another assay relates to CCD-19Lu. Briefly: In vitro cytotoxicity, MTT assay. In kind it is cell-based, human. The settings on record: 72 h incubation.
The test system of another assay is NCM460. Briefly: In vitro cytotoxicity, MTT assay. In kind it is cell-based, human. The settings on record: 72 h incubation.
A further assay deals with HCT116 cells. Briefly: Time-dependent induction of apoptosis, Caspase-3/7 Green ReadyProbes fluorescence microscopy. In kind it is cell-based, human. The settings on record: HCT116, NC1 ([1] = 3.5 μM and [DOX] = 0.5 μM) or DOX alone (0.5 μM), Caspase-3/7 Green Reagent. The protocol: B from 20.1 to 25 min and returned to initial conditions and equilibrated for 3 minutes.
The flow rate was 0.4 mL/min and the injection volume was 2 µL. The UPLC-QTOF-MS chromatograms of 1, 3, 4 and solvent control in acetonitrile were also recorded for the interpretation of UPLC-QTOF-MS chromatograms of the cell lysate.
Cellular uptake experiments. HCT116, A2780 and A2780adr (2×10 5 cells), and MIHA and NCM460 (3.5×10 5 cells) cells were grown on 6-well plates at 37 °C under an atmosphere of 5% CO2 for 48 h. The culture medium was then removed, washed with PBS solution, and incubated with culture medium containing nanostructures of 1 […]
Au1a (2 µM; with 1 vol% DMSO). At a predetermined time, the culture medium was removed and washed with PBS solution for three times. The cells were then harvested and dispersed in ice-cold water. An aliquot of the cell suspension was subjected to Bio-rad protein assay with a microtitre plate reader at the absorbance at 595 nm, using bovine serum albumin as the protein standard. […] The solution mixture was heated at 65 °C with shaking overnight, and the gold content was determined by ICP-MS. […]
then removed and washed with PBS solution. The cells were then incubated with culture medium containing nanostructures of 1 (2 µM) and CellEvent Caspase-3/7 Green ReadyProbes Reagent (30 µL), or Au1a (2 µM; with 1 vol% DMSO) and CellEvent Caspase-3/7 Green ReadyProbes Reagent (30 µL) at 37 °C under an atmosphere of 5% CO2. Fluorescence images at different time intervals were recorded by the fluorescence microscope without washing the cells. […]
once every 2–3 days. The tumor volume was calculated by the equation: Volume (mm3) = l×w2/2, where l and w were the length and width of the tumor. At the end of the treatment, the nude mice were sacrificed and the tumor weight was measured. […]
At a predetermined time, the culture medium was removed and washed with PBS solution for three times. […] An aliquot of the cell suspension was subjected to Bio-rad protein assay with a microtitre plate reader at the absorbance at 595 nm, using bovine serum albumin as the protein standard. […]

Where [1] appears, read: MTT assay, 72 h incubation, read-out: IC50.
Where [2] appears, read: 72 h, read-out: Total dose at IC50.

Procedure for A2780adr: (§2) In vitro cytotoxicity assays. HeLa, NCI-H460, HCT116, A2780, A2780cis and
(§3) cells), respectively, were seeded in 96-well plates for 24 h. The cells were then treated with a serial concentration of gold(III) complexes and incubated at 37 °C under a 5% CO2 atmosphere for 72 h. For nanostructures of 1, 2 and NC1, they were dissolved in
(§4) cisplatin were dissolved in culture medium-DMSO solution mixture (99:1, v/v).
Procedure for A2780cis: as §2, §3, §4
Procedure for CCD-19Lu: as §2, §3, §4
Procedure for HeLa: as §2, §3, §4
Procedure for MIHA: as §2, §3, §4
Procedure for NCI-H460: as §2, §3, §4
Procedure for NCM460: as §2, §3, §4

Take `N.N.[Cl][Pt][Cl]` [Cisplatin, cisplatin, reference compound]: the IC50 – broadly, the midpoint of a concentration-inhibition curve – in the assay on A2780cis was 8360 ± 50 nM; in the assay on CHEM-5, 13000 ± 200 nM; with L02, 5900 ± 20 nM; in the assay on A2780, 2590 ± 300 nM; with A2780adr (setting [1]), 12700 ± 1830 nM; with HeLa (setting [1]) it was 19800 ± 1420 nM. The IC50 in the assay on MIHA (setting [1]) was found to be 17600 ± 1310 nM; in the assay on HCT116 it was 15700 ± 2200 nM; with NCI-H460, 65400 ± 5060 nM; in the assay on CCD-19Lu, 49100 ± 5430 nM; in the assay on NCM460, 12300 ± 870 nM. Also, the “Resistance found in A2780cis” value in the assay on A2780cis was 3.23. In the assay with A2780adr, the “Resistance found in A2780adr” value is reported as 5.
For the molecule `COc1cccc2c1C(=O)c1c(O)c3c(c(O)c1C2=O)C[C@@](O)(C(=O)CO)C[C@@H]3O[C@H]1C[C@H](N)[C@H](O)[C@H](C)O1` [DOX, Doxorubicin, reference compound], the IC50 amounted to 50 ± 10 nM with A2780cis; 50 ± 10 nM in the assay on A2780; 680 nM in the assay on A2780adr (setting [2]); 680 ± 50 nM in the assay on A2780adr (setting [1]); 680 nM in the assay with A2780adr (read-out: DOX at IC50, 72 h); 570 nM in the assay with HeLa (setting [2]). Besides, the IC50 is 570 ± 60 nM with HeLa (setting [1]); 570 nM with HeLa (read-out: DOX at IC50, 72 h); 100 nM in the assay on MIHA (setting [2]); 100 ± 10 nM in the assay on MIHA (setting [1]); 100 nM in the assay on MIHA (read-out: DOX at IC50, 72 h); 140 ± 20 nM in the assay with HCT116. For the same molecule, in the assay with NCI-H460, the half-maximal inhibitory concentration (IC50) was 40 ± 10 nM. Also, the “Resistance found in A2780cis” value in the assay on A2780cis worked out at 1.20. In the assay on A2780adr, the “Resistance found in A2780adr” value is reported as 14.3. Also, the “incubation time for induction of apoptosis” value in the assay with HCT116 cells came to 30 h.
